# Laboratory results: ChEMBL document CHEMBL1799932, “Antimalarial pyrido[1,2-a]benzimidazoles” (J Med Chem, 2011)
# What was measured:
# Plasmodium berghei [1] = assay: Antimalarial activity against GFP-transfected Plasmodium berghei strain ANKA infected in NMRI mouse assessed as reduction in parasitemia at 50 mg/kg, po administered as single dose measured on day 3 by FACS analysis; type: functional; design: scale not given: the % may be the effect or the level left
# Plasmodium berghei [2] = assay: Antimalarial activity against GFP-transfected Plasmodium berghei strain ANKA infected in NMRI mouse assessed as increase in median survival time at 25 mg/kg, po administered as multiple dose for 4 days measured 24 hrs after last treatment (reference value: 6.5 days ); type: functional
# Plasmodium berghei [3] = assay: Antimalarial activity against GFP-transfected Plasmodium berghei strain ANKA infected in NMRI mouse assessed as increase in median survival time at 12.5 mg/kg, po administered as multiple dose for 4 days measured 24 hrs after last treatment (reference value: 6.5 days ); type: functional
# Rattus norvegicus [4] = assay: Cmax in fasted Sprague-Dawley rat assessed as 1-(2-Ethylaminoethylamino)-3-[4-(trifluoromethyl)phenyl]- pyrido[1,2-a]benzimidazole-4-carbonitrile level at 20 mg/kg, po after 48 hrs by LC-MS analysis; type: ADME, organism-based; design: dose 20 mg/kg, route oral; details: in vivo
# [5] = Metabolic stability in human liver microsomes assessed as degradation half life after 60 mins by LC-MS analysis; type: ADME, Microsome
# Plasma [6] = assay: Plasma protein binding in mouse assessed as 1-(2-Ethylaminoethylamino)-3-[4-(trifluoromethyl)phenyl]-pyrido[1,2-a]benzimidazole-4-carbonitrile at 5 mg/kg, iv after 48 hrs by LC-MS analysis; type: ADME, organism-based; design: dose 5 mg/kg, route intravenous; details: in vivo
# Plasma [7] = assay: Plasma protein binding in human assessed as 1-(2-Ethylaminoethylamino)-3-[4-(trifluoromethyl)phenyl]-pyrido[1,2-a]benzimidazole-4-carbonitrile at 5 mg/kg, iv after 48 hrs by LC-MS analysis; type: ADME, organism-based; design: dose 5 mg/kg, route intravenous; details: in vivo
# Plasmodium berghei [8] = assay: Antimalarial activity against GFP-transfected Plasmodium berghei strain ANKA infected in NMRI mouse assessed as increase in median survival time at 6 mg/kg, po administered as multiple dose for 4 days measured 24 hrs after last treatment (reference value: 6.5 days ); type: functional
# Plasmodium berghei [9] = assay: Antimalarial activity against GFP-transfected Plasmodium berghei strain ANKA infected in NMRI mouse assessed as reduction in parasitemia at 25 mg/kg, po administered as single dose measured on day 5 by FACS analysis; type: functional; design: scale not given: the % may be the effect or the level left
# [10] = Metabolic stability in rat liver microsomes assessed as intrinsic clearance per mg protein after 60 mins by LC-MS analysis; type: ADME, Microsome
# Plasmodium berghei [11] = assay: Antimalarial activity against GFP-transfected Plasmodium berghei strain ANKA infected in NMRI mouse assessed as reduction in parasitemia at 25 mg/kg, po administered as single dose measured on day 2 by FACS analysis; type: functional; design: scale not given: the % may be the effect or the level left
# Plasmodium berghei [12] = assay: Antimalarial activity against GFP-transfected Plasmodium berghei strain ANKA infected in NMRI mouse assessed as reduction in parasitemia at 50 mg/kg, po administered as single dose measured on day 5 by FACS analysis; type: functional; design: scale not given: the % may be the effect or the level left
# [13] = Metabolic stability in human liver microsomes assessed as intrinsic clearance per mg protein after 60 mins by LC-MS analysis; type: ADME, Microsome
# Plasmodium berghei [14] = assay: Antimalarial activity against GFP-transfected Plasmodium berghei strain ANKA infected in NMRI mouse assessed as reduction in parasitemia at 12.5 mg/kg, po administered as multiple dose for 4 days measured 24 hrs after last treatment; type: functional; design: scale not given: the % may be the effect or the level left
# Plasmodium berghei [15] = assay: Antimalarial activity against GFP-transfected Plasmodium berghei strain ANKA infected in NMRI mouse assessed as reduction in parasitemia at 25 mg/kg, po administered as single dose measured on day 4 by FACS analysis; type: functional; design: scale not given: the % may be the effect or the level left
# Plasmodium berghei [16] = assay: Antimalarial activity against GFP-transfected Plasmodium berghei strain ANKA infected in NMRI mouse assessed as increase in mean survival time at 25 mg/kg, po administered as single dose (reference value: 5 days )
# Rattus norvegicus [17] = assay: AUC (0 to tlast) in fasted Sprague-Dawley rat assessed as 1-(2-Ethylaminoethylamino)-3-[4-(trifluoromethyl)phenyl]- pyrido[1,2-a]benzimidazole-4-carbonitrile level at 20 mg/kg, po after 48 hrs by LC-MS analysis; type: ADME, organism-based, Plasma; design: time < 48 hr, dose 20 mg/kg, route oral; details: in vivo
# Plasmodium berghei [18] = assay: Antimalarial activity against GFP-transfected Plasmodium berghei strain ANKA infected in NMRI mouse assessed as reduction in parasitemia at 25 mg/kg, po administered as single dose for 4 days measured 24 hrs after last treatment; type: functional; design: scale not given: the % may be the effect or the level left
# Plasmodium berghei [19] = assay: Antimalarial activity against GFP-transfected Plasmodium berghei strain ANKA infected in NMRI mouse assessed as reduction in parasitemia at 3 mg/kg, po administered as multiple dose for 4 days measured 24 hrs after last treatment; type: functional; design: scale not given: the % may be the effect or the level left
# [20] = Metabolic stability in rat liver microsomes assessed as degradation half life after 60 mins by LC-MS analysis; type: ADME, Microsome
# Rattus norvegicus [21] = assay: Drug excretion in fasted Sprague-Dawley rat urine assessed as 1-(2-Ethylaminoethylamino)-3-[4-(trifluoromethyl)phenyl]- pyrido[1,2-a]benzimidazole-4-carbonitrile level at 20 mg/kg, po after 48 hrs by LC-MS analysis; type: ADME, organism-based; design: dose 20 mg/kg, route oral; details: in vivo
# Rattus norvegicus [22] = assay: Drug excretion in fasted Sprague-Dawley rat urine assessed as 1-(2-Ethylaminoethylamino)-3-[4-(trifluoromethyl)phenyl]- pyrido[1,2-a]benzimidazole-4-carbonitrile level at 5 mg/kg, iv after 48 hrs by LC-MS analysis; type: ADME, organism-based; design: dose 5 mg/kg, route intravenous; details: in vivo
# Rattus norvegicus [23] = assay: Apparent volume of distribution in fasted Sprague-Dawley rat plasma assessed as 1-(2-Ethylaminoethylamino)-3-[4-(trifluoromethyl)phenyl]- pyrido[1,2-a]benzimidazole-4-carbonitrile level at 5 mg/kg, iv after 48 hrs by LC-MS analysis; details: in vivo
# Plasmodium berghei [24] = assay: Antimalarial activity against GFP-transfected Plasmodium berghei strain ANKA infected in NMRI mouse assessed as reduction in parasitemia at 50 mg/kg, po administered as single dose measured on day 4 by FACS analysis; type: functional; design: scale not given: the % may be the effect or the level left
# Plasmodium berghei [25] = assay: Antimalarial activity against GFP-transfected Plasmodium berghei strain ANKA infected in NMRI mouse assessed as increase in median survival time at 3 mg/kg, po administered as single dose for 4 days measured 24 hrs after last treatment (reference value: 6.5 days ); type: functional
# Plasmodium berghei [26] = assay: Antimalarial activity against GFP-transfected Plasmodium berghei strain ANKA infected in NMRI mouse assessed as increase in median survival time at 50 mg/kg, po administered as multiple dose for 4 days measured 24 hrs after last treatment (reference value: 6.5 days ); type: functional
# [27] = Metabolic stability in mouse liver microsomes assessed as degradation half life after 60 mins by LC-MS analysis; type: ADME, Microsome
# Rattus norvegicus [28] = assay: AUC (0 to tlast) in fasted Sprague-Dawley rat assessed as 1-(2-Ethylaminoethylamino)-3-[4-(trifluoromethyl)phenyl]- pyrido[1,2-a]benzimidazole-4-carbonitrile level at 5 mg/kg, iv after 48 hrs by LC-MS analysis; type: ADME, organism-based, Plasma; design: time < 48 hr, dose 5 mg/kg, route intravenous; details: in vivo
# Plasmodium berghei [29] = assay: Antimalarial activity against GFP-transfected Plasmodium berghei strain ANKA infected in NMRI mouse assessed as reduction in parasitemia at 50 mg/kg, po administered as multiple dose for 4 days measured 24 hrs after last treatment; type: functional; design: scale not given: the % may be the effect or the level left
# Rattus norvegicus [30] = assay: Apparent half life in fasted Sprague-Dawley rat assessed as 1-(2-Ethylaminoethylamino)-3-[4-(trifluoromethyl)phenyl]- pyrido[1,2-a]benzimidazole-4-carbonitrile level at 5 mg/kg, iv after 48 hrs by LC-MS analysis; type: ADME, organism-based; design: dose 5 mg/kg, route intravenous; details: in vivo
# Plasmodium berghei [31] = assay: Antimalarial activity against GFP-transfected Plasmodium berghei strain ANKA infected in NMRI mouse assessed as reduction in parasitemia at 25 mg/kg, po administered as single dose measured on day 3 by FACS analysis; type: functional; design: scale not given: the % may be the effect or the level left
# Rattus norvegicus [32] = assay: Tmax in fasted Sprague-Dawley rat assessed as 1-(2-Ethylaminoethylamino)-3-[4-(trifluoromethyl)phenyl]- pyrido[1,2-a]benzimidazole-4-carbonitrile level at 20 mg/kg, po after 48 hrs by LC-MS analysis; type: ADME, organism-based; design: dose 20 mg/kg, route oral; details: in vivo
# Plasmodium berghei [33] = assay: Antimalarial activity against GFP-transfected Plasmodium berghei strain ANKA infected in NMRI mouse assessed as increase in mean survival time at 50 mg/kg, po administered as single dose (reference value: 5 days )
# Plasmodium berghei [34] = assay: Antimalarial activity against GFP-transfected Plasmodium berghei strain ANKA infected in NMRI mouse assessed as reduction in parasitemia at 50 mg/kg, po administered as single dose measured on day 2 by FACS analysis; type: functional; design: scale not given: the % may be the effect or the level left
# Plasmodium berghei [35] = assay: Antimalarial activity against GFP-transfected Plasmodium berghei strain ANKA infected in NMRI mouse assessed as reduction in parasitemia at 6 mg/kg, po administered as single dose for 4 days measured 24 hrs after last treatment; type: functional; design: scale not given: the % may be the effect or the level left
# [36] = Metabolic stability in mouse liver microsomes assessed as intrinsic clearance per mg protein after 60 mins by LC-MS analysis; type: ADME, Microsome
smiles,measurement,setting,value
CCNCCNc1cc(-c2ccc(C(F)(F)F)cc2)c(C#N)c2nc3ccccc3n12.Cl.Cl,Activity,Plasmodium berghei [1],50.24%
same,Activity,Plasmodium berghei [2],14.3 days
same,Activity,Plasmodium berghei [3],14 days
same,Cmax,Rattus norvegicus [4],950 nM
same,half-life,[5],2.28 h
same,PPB,Plasma [6],95.3%
same,PPB,Plasma [7],98.3%
same,Activity,Plasmodium berghei [8],7 days
same,Activity,Plasmodium berghei [9],68.92%
same,microsomal CLint,[10],6.1 µL/min/mg
same,Activity,Plasmodium berghei [11],23.51%
same,Activity,Plasmodium berghei [12],79.79%
same,microsomal CLint,[13],12.7 µL/min/mg
same,Activity,Plasmodium berghei [14],80.73%
same,Activity,Plasmodium berghei [15],62.25%
same,MSD,Plasmodium berghei [16],13.3 days
same,AUClast,Rattus norvegicus [17],2076 µM·min
same,Activity,Plasmodium berghei [18],95.72%
same,Activity,Plasmodium berghei [19],0%
same,half-life,[20],4.74 h
same,Activity,Rattus norvegicus [21],0.21%
same,Activity,Rattus norvegicus [22],1.13%
same,Vz,Rattus norvegicus [23],7.5 L/kg
same,Activity,Plasmodium berghei [24],71.22%
same,MSD,Plasmodium berghei [25],4 days
same,Activity,Plasmodium berghei [26],14 days
same,half-life,[27],5.35 h
same,AUClast,Rattus norvegicus [28],1000 µM·min
same,Activity,Plasmodium berghei [29],95.56%
same,t1/2(app),Rattus norvegicus [30],16.3 h
same,Activity,Plasmodium berghei [31],55.45%
same,Tmax,Rattus norvegicus [32],16 h
same,MSD,Plasmodium berghei [33],12.7 days
same,Activity,Plasmodium berghei [34],30.78%
same,Activity,Plasmodium berghei [35],38.35%
same,microsomal CLint,[36],5.4 µL/min/mg
